Tested on: 349418-098-R-PDC complex spheroid viability
Assay: Anticancer human tumor 349418-098-R-PDC patient-derived lung adenocarcinoma cell line growth inhibition [RAS]
Conditions: for IC50: curve of first compound; for viability, T/C: stronger effect = lower value
Summary of the method: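 Agents were tested in combination matrices in half-log decrements from a top concentration at or near clinical Cmax (10 microM if undetermined). Targets were multi-cell spheroids of tumour lines plus HUVEC and MSC stromal cells.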

[1] = second compound 0.000949 µM, first compound 0.00316 µM
[2] = second compound 0.000949 µM, first compound 0.01 µM
[3] = second compound 0.000949 µM, first compound 0.0316 µM
[4] = second compound 0.000949 µM, first compound 0.1 µM
[5] = second compound 0.000949 µM, first compound 0.316 µM
[6] = second compound 0.000949 µM, first compound 1 µM
[7] = second compound 0.003 µM, first compound 0.00316 µM
[8] = second compound 0.003 µM, first compound 0.01 µM
[9] = second compound 0.003 µM, first compound 0.0316 µM
[10] = second compound 0.003 µM, first compound 0.1 µM
[11] = second compound 0.003 µM, first compound 0.316 µM
[12] = second compound 0.003 µM, first compound 1 µM
[13] = second compound 0.00949 µM, first compound 0.00316 µM
[14] = second compound 0.00949 µM, first compound 0.01 µM
[15] = second compound 0.00949 µM, first compound 0.0316 µM
[16] = second compound 0.00949 µM, first compound 0.1 µM
[17] = second compound 0.00949 µM, first compound 0.316 µM
[18] = second compound 0.00949 µM, first compound 1 µM
[19] = second compound 0.03 µM, first compound 0.00316 µM
[20] = second compound 0.03 µM, first compound 0.01 µM
[21] = second compound 0.03 µM, first compound 0.0316 µM
[22] = second compound 0.03 µM, first compound 0.1 µM
[23] = second compound 0.03 µM, first compound 0.316 µM
[24] = second compound 0.03 µM, first compound 1 µM
[25] = second compound 0.0949 µM, first compound 0.00316 µM
[26] = second compound 0.0949 µM, first compound 0.01 µM
[27] = second compound 0.0949 µM, first compound 0.0316 µM
[28] = second compound 0.0949 µM, first compound 0.1 µM
[29] = second compound 0.0949 µM, first compound 0.316 µM
[30] = second compound 0.0949 µM, first compound 1 µM
[31] = second compound 0.3 µM, first compound 0.00316 µM
[32] = second compound 0.3 µM, first compound 0.01 µM
[33] = second compound 0.3 µM, first compound 0.0316 µM
[34] = second compound 0.3 µM, first compound 0.1 µM
[35] = second compound 0.3 µM, first compound 0.316 µM
[36] = second compound 0.3 µM, first compound 1 µM
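Also: spheroids exposed to compound for seven days before viability readout.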

`C=CC(=O)N1CCN(c2nc(OCC3CCCN3C)nc3c(F)c(-c4nc(N)cc(C)c4C(F)(F)F)c(Cl)cc23)C(C)C1` (stereo unspecified) + CCn1c(-c2cc(N3CCN(C)CC3)cnc2C(C)OC)c2c3cc(ccc31)-c1csc(n1)CC(NC(=O)C1CC1C)C(=O)N1CCCC(N1)C(=O)OCC(C)(C)C2 was tested, and the IC50 (second compound 0.000949 µM) was over 1000 nM, the IC50 (second compound 0.003 µM) was over 1000 nM and the IC50 (second compound 0.00949 µM) was over 1000 nM. It also gave an IC50 (second compound 0.03 µM) of over 1000 nM, an IC50 (second compound 0.0949 µM) of over 1000 nM and an IC50 (second compound 0.3 µM) of over 1000 nM. The viability, T/C [1] was 117%, the viability, T/C [2] was 82.4% and the viability, T/C [3] was 109%. For the same compound, the viability, T/C [4] was 101%, the viability, T/C [5] was 96.8% and the viability, T/C [6] was 101%. For the same compound, the viability, T/C [7] was 90.3%, the viability, T/C [8] was 105% and the viability, T/C [9] was 96.1%. It also gave a viability, T/C [10] of 86.7%, a viability, T/C [11] of 99.9% and a viability, T/C [12] of 82.2%. For the same compound, the viability, T/C [13] was 101%, the viability, T/C [14] was 97.1% and the viability, T/C [15] was 104%. The viability, T/C [16] was 98.9%, the viability, T/C [17] was 106% and the viability, T/C [18] was 80.7%. It also gave a viability, T/C [19] of 99%, a viability, T/C [20] of 110% and a viability, T/C [21] of 99.7%. For the same compound, the viability, T/C [22] was 102%, the viability, T/C [23] was 97.4% and the viability, T/C [24] was 82.3%. The viability, T/C [25] was 92.5%, the viability, T/C [26] was 110% and the viability, T/C [27] was 112%. It also gave a viability, T/C [28] of 112%, a viability, T/C [29] of 113% and a viability, T/C [30] of 102%. The viability, T/C [31] was 110%, the viability, T/C [32] was 94.3% and the viability, T/C [33] was 105%. For the same compound, the viability, T/C [34] was 109%, the viability, T/C [35] was 99.7% and the viability, T/C [36] was 90.5%.
In the case of `C=CC(=O)N1CCN(c2nc(OCC3CCCN3C)nc3c(F)c(-c4nc(N)cc(C)c4C(F)(F)F)c(Cl)cc23)C(C)C1` (stereo unspecified) + CCn1c(-c2cccnc2C(C)OC)c2c3cc(ccc31)N1CCOC(CC(NC(=O)C(C(C)C)N(C)C(=O)C3(F)CCN(C(=O)C#CC(C)(C)N(C)C)CC3)C(=O)N3CCCC(N3)C(=O)OCC(C)(C)C2)C1, the IC50 (second compound 0.000949 µM) is reported as over 1000 nM, the IC50 (second compound 0.003 µM) is reported as over 1000 nM and the IC50 (second compound 0.00949 µM) is reported as over 1000 nM. It also gave an IC50 (second compound 0.03 µM) of over 1000 nM, an IC50 (second compound 0.0949 µM) of over 1000 nM and an IC50 (second compound 0.3 µM) of over 1000 nM. For the same compound, the viability, T/C [1] was 99%, the viability, T/C [2] was 94% and the viability, T/C [3] was 111%. It also gave a viability, T/C [4] of 106%, a viability, T/C [5] of 116% and a viability, T/C [6] of 87.4%. It also gave a viability, T/C [7] of 112%, a viability, T/C [8] of 97.6% and a viability, T/C [9] of 103%. The viability, T/C [10] was 92.6%, the viability, T/C [11] was 109% and the viability, T/C [12] was 82.8%. It also gave a viability, T/C [13] of 105%, a viability, T/C [14] of 98.3% and a viability, T/C [15] of 101%. For the same compound, the viability, T/C [16] was 101%, the viability, T/C [17] was 105% and the viability, T/C [18] was 98.8%. It also gave a viability, T/C [19] of 99.3%, a viability, T/C [20] of 97.4% and a viability, T/C [21] of 90.2%. For the same compound, the viability, T/C [22] was 104%, the viability, T/C [23] was 103% and the viability, T/C [24] was 83.3%. It also gave a viability, T/C [25] of 102%, a viability, T/C [26] of 89% and a viability, T/C [27] of 85.5%. For the same compound, the viability, T/C [28] was 89.7%, the viability, T/C [29] was 100% and the viability, T/C [30] was 89%. It also gave a viability, T/C [31] of 85.4%, a viability, T/C [32] of 95.2% and a viability, T/C [33] of 83.8%. It also gave a viability, T/C [34] of 87.8%, a viability, T/C [35] of 101% and a viability, T/C [36] of 80%.
Work on `CC1(O)CCCC1n1c(=O)c(C(F)F)cc2cnc(NC3CCN(S(C)(=O)=O)CC3)nc21` (stereo unspecified) + C#Cc1c(F)ccc2cc(O)cc(-c3ncc4c(N5CC6CCC(C5)N6)nc(OCC56CCCN5CC(F)C6)nc4c3F)c12 yielded an IC50 (second compound 0.0316 µM) of 66 nM, an IC50 (second compound 0.1 µM) of 80.9 nM and an IC50 (second compound 0.316 µM) of 86.3 nM. The IC50 (second compound 1 µM) was 52.8 nM, the IC50 (second compound 3.16 µM) was 79.3 nM and the IC50 (second compound 10 µM) was under 31.6 nM. The viability, T/C (second compound 0.0316 µM, first compound 0.0316 µM) was 62.5%, the viability, T/C (second compound 0.0316 µM, first compound 0.1 µM) was 43.8% and the viability, T/C (second compound 0.0316 µM, first compound 0.316 µM) was 23%. For the same compound, the viability, T/C (second compound 0.0316 µM, first compound 1 µM) was 27.6%, the viability, T/C (second compound 0.0316 µM, first compound 3.16 µM) was 23.2% and the viability, T/C (second compound 0.0316 µM, first compound 10 µM) was 3.27%. The viability, T/C (second compound 0.1 µM, first compound 0.0316 µM) was 83.5%, the viability, T/C (second compound 0.1 µM, first compound 0.1 µM) was 41.3% and the viability, T/C (second compound 0.1 µM, first compound 0.316 µM) was 23.1%. For the same compound, the viability, T/C (second compound 0.1 µM, first compound 1 µM) was 16.2%, the viability, T/C (second compound 0.1 µM, first compound 3.16 µM) was 18.7% and the viability, T/C (second compound 0.1 µM, first compound 10 µM) was 3.67%. The viability, T/C (second compound 0.316 µM, first compound 0.0316 µM) was 84.5%, the viability, T/C (second compound 0.316 µM, first compound 0.1 µM) was 41.7% and the viability, T/C (second compound 0.316 µM, first compound 0.316 µM) was 25.2%. It also gave a viability, T/C (second compound 0.316 µM, first compound 1 µM) of 25.8%, a viability, T/C (second compound 0.316 µM, first compound 3.16 µM) of 20.1% and a viability, T/C (second compound 0.316 µM, first compound 10 µM) of 3.12%. The viability, T/C (second compound 1 µM, first compound 0.0316 µM) was 60.5%, the viability, T/C (second compound 1 µM, first compound 0.1 µM) was 35.9% and the viability, T/C (second compound 1 µM, first compound 0.316 µM) was 28.9%. The viability, T/C (second compound 1 µM, first compound 1 µM) was 26.5%, the viability, T/C (second compound 1 µM, first compound 3.16 µM) was 19.9% and the viability, T/C (second compound 1 µM, first compound 10 µM) was 4.34%. For the same compound, the viability, T/C (second compound 3.16 µM, first compound 0.0316 µM) was 67.6%, the viability, T/C (second compound 3.16 µM, first compound 0.1 µM) was 41.9% and the viability, T/C (second compound 3.16 µM, first compound 0.316 µM) was 29.9%. It also gave a viability, T/C (second compound 3.16 µM, first compound 1 µM) of 25%, a viability, T/C (second compound 3.16 µM, first compound 3.16 µM) of 25.5% and a viability, T/C (second compound 3.16 µM, first compound 10 µM) of 4.16%. For the same compound, the viability, T/C (second compound 10 µM, first compound 0.0316 µM) was 49.8%, the viability, T/C (second compound 10 µM, first compound 0.1 µM) was 12.9% and the viability, T/C (second compound 10 µM, first compound 0.316 µM) was 16.3%. It also gave a viability, T/C (second compound 10 µM, first compound 1 µM) of 14.4%, a viability, T/C (second compound 10 µM, first compound 3.16 µM) of 9.5% and a viability, T/C (second compound 10 µM, first compound 10 µM) of 1.44%.

Reference: PubChem BioAssay AID2060904 (Molecular Pharmacology Branch, DTP, NCI, 2025)
